Results published in US20010053796A1, “Delta-aminolevulinic acid for prevention and treatment of infection microorganisms and parasite” (priority 2000, published 2001).

Legend:
[1] = test system: White Spot Syndrome Virus (WSSV); experiment: Treatment for WSSV infected shrimp; type: in vivo, Penaeus Chinesis
Description: In this experiment, after injection of the viral homogenate aforementioned in EXPERIMENT 1, treatment group was immersed respectively in 0.01˜10 ppm of ALA for 1.5 hour for 3 days.

[2] = test system: Staphylococcus epidermis; experiment: Prevention effect for artificial infection (abdominal injection of bacteria); type: in vivo, Bastardhalibut; details: for Mortality during Cultivation: dead of 20 fish
Description: (§1) The water temperature was maintained at 20° C. (±2° C. ) throughout the experiment. […]
(§2) Bastardhalibut and Sebastes schlegeli were infected by […] Staphylococcus epidermis through abdominal injection with the same method of fish breeding; δ-aminolevulinic acid treatment and artificial carried out in Experiment 1 and 2. Each experimental fish was moved to fish tanks for monitoring and monitored for mortality according to infection for 2 weeks. […] The treated group, with δ-aminolevulinic acid by tank administraion method and oral administration method, has shown high viability.

[3] = test system: RTG-2 (Rainbow Trout Gonad); details: 24 h
Description: δ-aminolevulinic acid feed were prepared to 1.0 M concentration (0. 167 g/mL HBSS) and diluted by 10-fold dilution method. 100 μl of each fish cell line suspension of 2.5×10^5 were placed into 96-well microplate and then, 100 μl of each of the resulting diluted solution, 4 well/dilution unit, were added respectively. Fish cell lines, which were used for this cell toxicity experiment of δ-aminolevulinic acid, were RTG-2 (Rainbow Trout Gonad), FHM (Fathead Minnow Epithelioma) and CHSE (Chinook Salmon Embryo) lotted out from Dr. M. Yoshimizu of the Department of Fisheries, Hokkaido University, Japan. For these experimental cells, 100 U/mL penicillin (Sigma), 100 μl/mL streptomycin (Sigma) and MEM media supplemented with 5% fetal bovine serum (FBS, Gibco) for cell culture were used. Cultured cells in 96-well microplate was incubated for 3 hrs at 15° C. and δ-aminolevulinic acid were added to wells at amounts of 100 μl of 0, 1.0, 10, 50 and 100 mM and incubated for 24 hrs at 18° C. As a control group, instead of δ-aminolevulinic acid, HBSS was added at the same amount. […] Absorbance was measured with an ELISA reader at 570 μl.

[4] = test system: Edwardsiella tarda; experiment: Prevention effect for artificial infection (abdominal injection of bacteria); type: in vivo, Bastardhalibut; details: for Mortality during Cultivation: dead of 20 fish
Description: (§3) The water temperature was maintained at 20° C. (±2° C. ) throughout the experiment.
(§4) As the same method of above Experiment 1, fishes of both control group and experiment group were prepared and artificially infected by direct abdominal injection of Edwardsiella tarda 10^5 CFU per 1 fish. Each experimental fish was moved to fish tanks for monitoring and monitored for mortality according to infection for 2 weeks and viability after 2 weeks.

[5] = test system: Pseudomonas sp.; experiment: as above; type: in vivo, Sebastes schlegeli; details: for Mortality during Cultivation: dead of 20 fish
Description: as §3, §4
Bastardhalibut and Sebastes schlegeli were infected by Pseudomonas sp. through abdominal injection with the same method of fish breeding; δ-aminolevulinic acid treatment and artificial infection carried out in Experiment 1 and 2. Each experimental fish was moved to fish tanks for monitoring and monitored for mortality according to infection for 2 weeks.

[6] = test system: Staphylococcus epidermis; experiment: as above; type: in vivo, Sebastes schlegeli; details: for Mortality during Cultivation: dead of 20 fish
Description: as §1, §2

[7] = test system: Scutica; experiment: Application to Scutica-infected seedling nursery; type: in vivo, flatfish; details: 30 ppm formalin day 1, then 1 ppm for 2 hrs on days 2 and 3
Description: Seedling was produced in flatfish seedling nursery and flatfish fry in seedling nursery, where marketing had stopped due to the infection of Scutica in a marketing stage (the length 5˜6 cm). They were treated with δ-aminolevulinic acid made by the inventors. Seriously infected fish were collected from seedling nursery and contained in water tanks and treated. On the first day, the fish were treated with 30 ppm formalin and, on the second and third day, were treated δ-aminolevulinic acid at concentration of 1 ppm for 2 hrs. […] Cultivation in a water tank of a fish farm where the ozone treatment system, which can control pathogenic organisms in seawater for cultivating, was applied has shown possibility of normal cultivation.

[8] = orally, 1.0 ppm in feed, Sebastes schlegeli
[9] = orally, 10 ppm in feed, Sebastes schlegeli
[10] = orally, 100 ppm in feed, Sebastes schlegeli
[11] = to fish tanks, 0.01 ppm, Sebastes schlegeli
[12] = to fish tanks, 0.1 ppm, Sebastes schlegeli
[13] = to fish tanks, 1.0 ppm, Sebastes schlegeli

## NCC(=O)CCC(=O)O [δ-aminolevulinic acid]
[1]; 0.01 ppm, after injection for 3 weeks
  Cumulative mortality: 100%
[1]; 0.01 ppm, day 1, 50 shrimp
  Mortality after injection for 3 weeks: 0
[1]; 0.01 ppm, day 2, 50 shrimp
  Mortality after injection for 3 weeks: 0
[1]; 0.01 ppm, day 3, 50 shrimp
  Mortality after injection for 3 weeks: 15
[1]; 0.01 ppm, day 4, 50 shrimp
  Mortality after injection for 3 weeks: 20
[1]; 0.01 ppm, day 5, 50 shrimp
  Mortality after injection for 3 weeks: 12
[1]; 0.01 ppm, day 6, 50 shrimp
  Mortality after injection for 3 weeks: 3
[1]; 0.1 ppm, after injection for 3 weeks
  Cumulative mortality: 18%
[1]; 0.1 ppm, day 1, 50 shrimp
  Mortality after injection for 3 weeks: 0
[1]; 0.1 ppm, day 2, 50 shrimp
  Mortality after injection for 3 weeks: 0
[1]; 0.1 ppm, day 3, 50 shrimp
  Mortality after injection for 3 weeks: 4
[1]; 0.1 ppm, day 4, 50 shrimp
  Mortality after injection for 3 weeks: 3
[1]; 0.1 ppm, day 5, 50 shrimp
  Mortality after injection for 3 weeks: 2
[1]; 0.1 ppm, day 6, 50 shrimp
  Mortality after injection for 3 weeks: 0
[1]; 0.1 ppm, day 7, 50 shrimp
  Mortality after injection for 3 weeks: 0
[1]; 0.1 ppm, day 21, 50 shrimp
  Mortality after injection for 3 weeks: 0
[1]; 1.0 ppm, after injection for 3 weeks
  Cumulative mortality: 10%
[1]; 1.0 ppm, day 1, 50 shrimp
  Mortality after injection for 3 weeks: 0
[1]; 1.0 ppm, day 2, 50 shrimp
  Mortality after injection for 3 weeks: 0
[1]; 1.0 ppm, day 3, 50 shrimp
  Mortality after injection for 3 weeks: 3
[1]; 1.0 ppm, day 4, 50 shrimp
  Mortality after injection for 3 weeks: 2
[1]; 1.0 ppm, day 5, 50 shrimp
  Mortality after injection for 3 weeks: 0
[1]; 1.0 ppm, day 6, 50 shrimp
  Mortality after injection for 3 weeks: 0
[1]; 1.0 ppm, day 7, 50 shrimp
  Mortality after injection for 3 weeks: 0
[1]; 1.0 ppm, day 21, 50 shrimp
  Mortality after injection for 3 weeks: 0
[1]; 10 ppm, after injection for 3 weeks
  Cumulative mortality: 8%
[1]; 10 ppm, day 1, 50 shrimp
  Mortality after injection for 3 weeks: 0
[1]; 10 ppm, day 2, 50 shrimp
  Mortality after injection for 3 weeks: 0
[1]; 10 ppm, day 3, 50 shrimp
  Mortality after injection for 3 weeks: 3
[1]; 10 ppm, day 4, 50 shrimp
  Mortality after injection for 3 weeks: 1
[1]; 10 ppm, day 5, 50 shrimp
  Mortality after injection for 3 weeks: 0
[1]; 10 ppm, day 6, 50 shrimp
  Mortality after injection for 3 weeks: 0
[1]; 10 ppm, day 7, 50 shrimp
  Mortality after injection for 3 weeks: 0
[1]; 10 ppm, day 21, 50 shrimp
  Mortality after injection for 3 weeks: 0
[1]; immersion 1.0 ppm, 1.5 hour for 3 days after virus injection, 3 weeks
  Cumulative mortality: 10%
[1]; immersion 10 ppm, 1.5 hour for 3 days after virus injection, 3 weeks
  Cumulative mortality: 8%
[2]; orally, 0.1 ppm in feed
  Viability: 50%
  Mortality during Cultivation: 10
[2]; orally, 1.0 ppm in feed
  Viability: 55%
  Mortality during Cultivation: 9
[2]; orally, 10 ppm in feed
  Viability: 70%
  Mortality during Cultivation: 6
[2]; orally, 100 ppm in feed
  Viability: 80%
  Mortality during Cultivation: 4
[2]; to fish tanks, 0.01 ppm
  Viability: 55%
  Mortality during Cultivation: 9
[2]; to fish tanks, 0.1 ppm
  Viability: 65%
  Mortality during Cultivation: 7
[2]; to fish tanks, 1.0 ppm
  Viability: 65%
  Mortality during Cultivation: 7
[2]; to fish tanks, 10 ppm
  Viability: 75%
  Mortality during Cultivation: 5
[3]
  safe range of toxicity: below 10 mM
[4]; orally, 0.01 ppm in feed
  Viability: 75%
  Mortality during Cultivation: 5
[4]; orally, 1.0 ppm in feed
  Viability: 70%
  Mortality during Cultivation: 6
[4]; orally, 10 ppm in feed
  Viability: 85%
  Mortality during Cultivation: 3
[4]; orally, 100 ppm in feed
  Viability: 95%
  Mortality during Cultivation: 1
[4]; to fish tanks, 0.01 ppm
  Viability: 65%
  Mortality during Cultivation: 7
[4]; to fish tanks, 0.1 ppm
  Viability: 75%
  Mortality during Cultivation: 5
[4]; to fish tanks, 1.0 ppm
  Viability: 85%
  Mortality during Cultivation: 3
[4]; to fish tanks, 10 ppm
  Viability: 90%
  Mortality during Cultivation: 2
[5]; orally, 0.1 ppm in feed
  Viability: 60%
  Mortality during Cultivation: 8
[5]; [8]
  Viability: 60%
  Mortality during Cultivation: 8
[5]; [9]
  Viability: 85%
  Mortality during Cultivation: 3
[5]; [10]
  Viability: 85%
  Mortality during Cultivation: 3
[5]; [11]
  Viability: 55%
  Mortality during Cultivation: 9
[5]; [12]
  Viability: 55%
  Mortality during Cultivation: 9
[5]; [13]
  Viability: 85%
  Mortality during Cultivation: 3
[5]; to fish tanks, 10 ppm
  Viability: 90%
  Mortality during Cultivation: 2
[6]; orally, 0.1 ppm in feed
  Viability: 50%
  Mortality during Cultivation: 10
[6]; orally, 1.0 ppm in feed
  Viability: 50%
  Mortality during Cultivation: 10
[6]; orally, 10 ppm in feed
  Viability: 75%
  Mortality during Cultivation: 5
[6]; orally, 100 ppm in feed
  Viability: 80%
  Mortality during Cultivation: 4
[6]; to fish tanks, 0.01 ppm
  Viability: 55%
  Mortality during Cultivation: 9
[6]; to fish tanks, 0.1 ppm
  Viability: 55%
  Mortality during Cultivation: 9
[6]; to fish tanks, 1.0 ppm
  Viability: 80%
  Mortality during Cultivation: 4
[6]; to fish tanks, 10 ppm
  Viability: 80%
  Mortality during Cultivation: 4
[7]; after 2 weeks of cultivation
  examination of infection through sampling of fish body: no infection by Scutica
[7]; after 1 day of treatment
  vitality of treated fish: highly improved
